Consider seven compounds from patent US6238693A, “Transdermal administration of fenoldopam” (priority 1999, dated 2001).

The structures appear in SMILES notation. Where a name gives a salt, the structure may show the parent alone.

Series [1] relates to guinea pigs. Briefly: Dermal sensitization challenge study (definitive study). The conditions noted are these: 40 mg/mL challenge. The class given is in vivo, guinea pig. The protocol: Based on the results from this initial phase of dermal sensitization studies, a definitive challenge dermal sensitivity study was conducted, as described in Example 3. Briefly, thirty animals were divided into three test groups of 10 animals each. The animals in Group 5 were treated with fenoldopam mesylate, the animals in Group 6 with R-fenoldopam mesylate and the animals in Group 7 were treated with vehicles alone as a control.
All animals were initially treated with intradermal injections of the test compound, e.g., fenoldopam mesylate (Group 5) or R-fenoldopam (Group 6), in a 1:1 mixture of propylene glycol:water or in a mixture of Freund's Complete Adjuvent (FCA) in propylene glycol:water. The drug concentration in these vehicle mixtures was 40 mg/mL (see Table 4 in Example 3). The animals were also treated with FCA in water alone. The animals in Group 7 received the same three formulations, except for the absence of fenoldopam.
One week after the intradermal injections, each of the test formulations was applied topically to the injection site. The topical application, in the form of a saturated patch of filter paper, was left in place for 48 hours.
Two weeks after the topical application, the animals in groups 5 and 6 received a challenge dose of 40 mg/mL of the test compound in PG:water, applied topically to a naive site. On the opposing side of the animal, the vehicle alone (PG:water) was applied. The animals in Group 7 received the vehicle alone on both sides. 24 hours after the topical challenge dose, the site was scored for dermal sensitization using the four-point scale given above.
Thirty guinea pigs were obtained and cared for as set forth in Example 2.
On Day 1 of the study, an area approximately 4 cm×6 cm was clipped with an electric clipper along the midline over the shoulder region of each animal in the test and control groups. Two rows of three 0.1 mL intradermal injections were made within the boundaries of a 2 cm×4 cm area, one row on each side of the midline. The injections in each row were as follows: at the anterior site, the animal received 0.1 mL of the prepared Freund's Complete Adjuvent (FCA) solution (Groups 5, 6 and 7); at the medial site, the animals received 0.1 mL of the respective prepared test material (Groups 5 and 6) or vehicle control (Group 7); and at the posterior site, the animals received 0.1 mL of the respective test material (drug in PG:water) further mixed with FCA solution (Groups 5 and 6) or a 1:1 dilution of the PG:water vehicle control in FCA.
On Day 7, the area of intradermal injection on each animal in Groups 5, 6 and 7 was clipped free of hair with an electric clipper. The clipped area was treated with 10% w/w sodium lauryl sulfate in petrolatum. […]

The subject of series [2] is guinea pigs. The following applies: guinea pig, in vivo. As to the method:
(§1) Dermal sensitization studies in guinea pigs were done to assess the contact sensitization of fenoldopam mesylate and of R-fenoldopam mesylate, the active enantiomer, when administered topically and intradermally. Each of the drugs, the fenoldopam mesylate and the R-fenoldopam mesylate, were administered to the animals from a 50:50 mixture of propylene glycol/water, at drug concentrations of 40 mg/mL, 30 mg/mL, 20 mg/mL, and 10 mg/mL.
Dermal sensitization was also evaluated following intradermal injection of fenoldopam mesylate and R-fenoldopam at the same concentrations used in the topical screening. As described in Example 2, four animals (Group 3) were treated with […] injections of fenoldopam mesylate at four injection sites, one for each of the four concentrations. Four animals in Group 4 were similarly injected with R-fenoldopam at the four concentrations. 24 hours after injection, the injection sites were scored for dermal reaction on the 4-point scale.
Guinea pigs (strain: CRl (HA)BR) were obtained from Charles River Laboratories. The animals were young adults, weighing between 350-550 g at the start of the study. Each animals was housed individually and fed ad libitum a certified
A stock solution of 50% propylene glycol/50% sterile water mixture was prepared as the control material and for preparation of the test materials.
On each day of testing, a 40 mg/mL fenoldopam mesylate or R-fenoldopam mesylate in 50% propylene glycol/50% sterile water solution was prepared using the stock solution. The 40 mg/mL drug solution was diluted with the stock solution to prepare solutions of 30 mg/mL, 20 mg/mL and 10 mg/mL of both the racemate and the enantiomer. All test materials were used within 8 hours of preparation and were stored at room temperature until administered.
Sixteen guinea pigs were divided into the following groups:
For the intradermal injection, the four animals in Group 3 were treated with intradermal injection of fenoldopam mesylate and the four animals in Group 4 were treated with intradermal injections of R-fenoldopam mesylate. The test materials were administered at concentrations of 40 mg/mL, 30 mg/mL, 20 mg/mL and 10 mg/mL by injecting each at a volume of 0.1 mL into a separate site on the shaved back of the test animal. The areas of intradermal injections were evaluated for dermal irritation on the four-point scale given above at 24 and 48 hours after injection. The test sites were clipped with an electric clipper before the first reading.

For series [3], the system named is guinea pigs. The conditions noted are these: guinea pig, in vivo. As to the method: as §1
As described in Example 2, sixteen animals were divided into 4 groups of 4 animals each. The first group of 4 animals (Group 1) were treated with a topical application of fenoldopam mesylate at the four concentrations. Each animal, after having the hair removed from its back and sides, received each of the concentrations applied at four separate sites. The animals in Group 2 were similarly treated, except with R-fenoldopam. After 24 hours of exposure to the test material, the application site was scored on a four-point scale for dermal reactions (0=no reaction, 1=moderate mild redness, 2=moderate and diffuse redness, 3=intense redness and swelling). […]
For the topical application, the test materials were placed on 2 cm×2 cm pieced of filter paper to saturation and allowed to remain in place on the animal for 24 hours. […] The sites were scored on the following four-point scale for dermal reactions at approximately 24 and 48 hours after patch removal: […]
This is another data set of the same source.

For series [4] the following is noted: cited from earlier work.
The conditions of series [5]: exposure to the atmosphere during storage; cited from earlier work.
The subject of series [6] is dopamine type-1 receptors. The following applies: cited from earlier work.
For series [7] the following is noted: cited from earlier work. This is another data set of the same source.
[8] abbreviates: intravenous infusion, therapeutic dosages.

As to `Oc1ccc(C2CNCCc3c2cc(O)c(O)c3Cl)cc1` (racemic) [fenoldopam mesylate], in the series on guinea pigs [1], the “animals scored as having "scattered mild redness"” value is 6 of the 10 animals and the “dermal sensitization (summary)” value was “moderate dermal sensitization”. Further, in the series on guinea pigs [2], the “Dermal Reactions, intradermal injection” value amounted to 2 and the “appearance of injection site (footnote)” value is given as “Whitish in color”. In the series with guinea pigs [3], the “Dermal Reactions, topical application” value was 0.
Regarding `Oc1ccc(C2CNCCc3c2cc(O)c(O)c3Cl)cc1` (racemic) [racemic fenoldopam], in series [4] (human, in vivo, iv), the “average clearance (CL)” value is recorded as 2.6 L/min and the “half-life (t1/2)” value is 4.6 min.
Consider `Oc1ccc(C2CNCCc3c2cc(O)c(O)c3Cl)cc1` (stereo not shown) [fenoldopam free base], for which the oxidation result in series [5] is on record as “readily oxidized”.
For `Oc1ccc([C@H]2CNCCc3c2cc(O)c(O)c3Cl)cc1` [R-fenoldopam], the “biological activity of enantiomer” value in series [6] is given as “the activity of the drug is due to the R-enantiomer”.
Take `Oc1ccc([C@@H]2CNCCc3c2cc(O)c(O)c3Cl)cc1` [S-fenoldopam]: the “biological activity of enantiomer” value in series [6] is “relatively inactive”.
Regarding `Oc1ccc(C2CNCCc3c2cc(O)c(O)c3Cl)cc1` (stereo not drawn) [fenoldopam, 6-chloro-2,3,4,5-tetrahydro-l-(4-hydroxyphenyl)-1H-3-benzazepine-7,8-diol], in series [6] (via stimulation of dopamine type-1 receptors), the “dopamine agonism / peripheral vasodilation” value is reported as “dopamine agonist that causes peripheral vasodilation”. Further, in series [7] (in vivo), the blood pressure result is recorded as “decrease in blood pressure”; the “duration of antihypertensive and renal effects” value is “short lasting”; the “renal vasodilation, diuresis and natriuresis” value was “renal vasodilation, diuresis and natriuresis”. Moreover, in series [7] (setting [8]), the “creatinine clearance, urinary flow and excretion of sodium and potassium” value is “increasing creatinine clearance, urinary flow and excretion of sodium and potassium”; the glomerular filtration rate entry is “maintaining glomerular filtration rate”; the renal blood flow result is listed as “increases renal blood flow”; the renal vascular resistance result is listed as “decreases renal vascular resistance”. The “time to achieve dose-dependent steady-state plasma concentration” value in series [4] (intravenous, about 0.01-1.6 μg/kg/min for up to 48 hours) is “about 20 minutes”. Moreover, the first-pass metabolism result in series [4] (via sulfation and glucuronidation) is “high first-pass metabolism”.
In the case of `Oc1ccc([C@H]2CNCCc3c2cc(O)c(O)c3Cl)cc1` [R-fenoldopam mesylate], in the series on guinea pigs [1], the “animals scored as having "scattered mild redness"” value is 5 of the 10 animals and the “dermal sensitization (summary)” value is “moderate dermal sensitization”. In the series with guinea pigs [2], the “Dermal Reactions, intradermal injection” value stood at 2 and the “appearance of injection site (footnote)” value is “Whitish in color”. Moreover, in the series with guinea pigs [3], the “Dermal Reactions, topical application” value is 0.
